Six molecules from patent publication US12071424B2, “IRE1 small molecule inhibitors” (Cornell University, priority 2017, dated 2024) can be followed below.

Each structure is given as a SMILES string. Where only a bound is given, the exact number is not on record here.

One series concerns the target T1, hERG channel (Homo sapiens, UniProt Q12809).
T1 construct: expressed in transfected cells
Kind of series: hERG potassium ion channel automated planar clamp (QPatch) in stable CHO cell line. The settings on record: Formic Acid Salt (37: HCl Salt), read-out: hERG channel blockade Mean IC50. The series is classed as cell-based. Here is the method:
Blockade of the cardiac ion channel coded by the hERG gene can lead to cardiac arrhythmia. […] To determine the viability of the compounds disclosed herein as pharmacological agents that would not affect the hERG channel blockade, a standard automated planar clamp method was employed to determine the IC50 for various test compounds on their inhibition of the channel. An electrophysiological assay was prepared to measure the electric current passing through the hERG channel expressed in a stable CHO cell line by applying the planar clamp method. This assay was performed using the automated QPatch platform (Sophion, Denmark) which allows fast and accurate electrophysiological characterization of the hERG ion channel and the determination of IC50 values for the test compounds, as shown in Table 9.

The test system of a further series is 293T cells. Kind of series: Growth assay (cytotoxicity). Type of series: cell-based, human. The conditions noted are these: Formic Acid Salt (37: HCl Salt); for viability at 0.185 µM / viability at 0.5556 µM / viability at 1.667 µM / viability at 5 µM: Homo sapiens, HEK-293T. Here is the method:
A growth assay was performed to evaluate the compounds disclosed herein for cytotoxicity. Briefly, 5,000,000 293T cells were resuspended in 18 mL of cDMEM for a final concentration of […]. […] In a separate 96 well dilution plate, 199 uL cDMEM and 1 uL of DMSO or any one of the compounds disclosed herein (shown as Test Compound 1, 2, 3, 4, 5, or 6 below) were added to wells A4, A8, C4, C8, E4, E8, G4, and G8, 133.3 uL cDMEM was added to wells 1, 2, 3, 5, 6, and 7 in rows A, C, E and G of the dilution plate. Compounds were serially diluted leftwards in threefold dilutions (66.7 uL into 133.3 uL cDMEM). 20 uL of each dilution was transferred in duplicate (duplicates in vertical paired wells) to the cells plated in the 96-well plate shown in Table 5, to the total concentrations shown below. 200 uL cDMEM was addled to media wells (wells G5-H8). The plate was then placed in a humidified chamber for a […], and then photographed (media was more yellow in wells with potent cell growth). Absorbance was then measured at ˜[…] (lower for more acidic media) and ˜450 nM (higher for more acidic media).

Series [1] deals with IRE1a. Briefly: IRE1a Endoribonuclease Nanoluciferase Assay (XBP1 luciferase reporter in 293T cells). The settings on record: Homo sapiens, HEK-293T, ER stressor, tested as Formic Acid Salt (37: HCl Salt). The series is classed as cell-based, human. Summed up:
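293T cells transiently transfected with a PGK-Luc2-P2A-XBP1u-Nanoluciferase-Pest reporter, replated after 6 h, then treated next day with ER stressors ± inhibitors. After lysis, firefly luminescence then nanoluciferase luminescence read sequentially (1000 ms integration each).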
Background: A reporter such as luciferase makes a cellular process visible.

In series [2] the target is T2, IRE1a (Homo sapiens, UniProt O75460).
T2 construct: purchased SignalChem
T2 sequence (O75460 19-977): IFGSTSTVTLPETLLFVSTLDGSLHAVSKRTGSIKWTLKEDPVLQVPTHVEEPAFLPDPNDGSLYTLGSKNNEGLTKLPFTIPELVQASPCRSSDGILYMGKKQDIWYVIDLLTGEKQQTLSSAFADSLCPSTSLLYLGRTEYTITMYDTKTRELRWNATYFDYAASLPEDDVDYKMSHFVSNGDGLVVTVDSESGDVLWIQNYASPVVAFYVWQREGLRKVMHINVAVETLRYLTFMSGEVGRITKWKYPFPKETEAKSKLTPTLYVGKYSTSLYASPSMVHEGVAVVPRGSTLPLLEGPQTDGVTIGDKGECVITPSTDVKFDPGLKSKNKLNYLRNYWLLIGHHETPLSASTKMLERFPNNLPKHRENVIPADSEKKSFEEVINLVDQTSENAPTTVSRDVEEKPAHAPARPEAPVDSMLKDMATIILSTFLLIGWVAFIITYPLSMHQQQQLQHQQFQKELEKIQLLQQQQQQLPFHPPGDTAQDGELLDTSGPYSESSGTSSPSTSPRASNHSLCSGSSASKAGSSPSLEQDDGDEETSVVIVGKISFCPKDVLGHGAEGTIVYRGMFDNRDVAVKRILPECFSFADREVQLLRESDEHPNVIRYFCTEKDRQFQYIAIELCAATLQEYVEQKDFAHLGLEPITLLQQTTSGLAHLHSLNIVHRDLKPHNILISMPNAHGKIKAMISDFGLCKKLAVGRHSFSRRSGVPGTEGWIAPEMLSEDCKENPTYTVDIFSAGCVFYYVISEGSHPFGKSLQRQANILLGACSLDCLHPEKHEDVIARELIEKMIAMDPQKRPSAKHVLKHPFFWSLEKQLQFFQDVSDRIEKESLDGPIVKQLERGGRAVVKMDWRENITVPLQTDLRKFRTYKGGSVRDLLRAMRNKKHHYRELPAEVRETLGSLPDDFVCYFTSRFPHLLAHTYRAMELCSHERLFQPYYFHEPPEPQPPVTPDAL
Briefly: In vitro FRET assay (IRE1a cleavage of XBP1 RNA probe). Type of series: biochemical. The settings on record: 2 nM SignalChem IRE1a, tested as Formic Acid Salt (37: HCl Salt). Summed up:
Human

A short description of another series: in vivo. The settings on record: mouse, po, 30 mg/kg.

T1 sequence (Q12809 whole entry): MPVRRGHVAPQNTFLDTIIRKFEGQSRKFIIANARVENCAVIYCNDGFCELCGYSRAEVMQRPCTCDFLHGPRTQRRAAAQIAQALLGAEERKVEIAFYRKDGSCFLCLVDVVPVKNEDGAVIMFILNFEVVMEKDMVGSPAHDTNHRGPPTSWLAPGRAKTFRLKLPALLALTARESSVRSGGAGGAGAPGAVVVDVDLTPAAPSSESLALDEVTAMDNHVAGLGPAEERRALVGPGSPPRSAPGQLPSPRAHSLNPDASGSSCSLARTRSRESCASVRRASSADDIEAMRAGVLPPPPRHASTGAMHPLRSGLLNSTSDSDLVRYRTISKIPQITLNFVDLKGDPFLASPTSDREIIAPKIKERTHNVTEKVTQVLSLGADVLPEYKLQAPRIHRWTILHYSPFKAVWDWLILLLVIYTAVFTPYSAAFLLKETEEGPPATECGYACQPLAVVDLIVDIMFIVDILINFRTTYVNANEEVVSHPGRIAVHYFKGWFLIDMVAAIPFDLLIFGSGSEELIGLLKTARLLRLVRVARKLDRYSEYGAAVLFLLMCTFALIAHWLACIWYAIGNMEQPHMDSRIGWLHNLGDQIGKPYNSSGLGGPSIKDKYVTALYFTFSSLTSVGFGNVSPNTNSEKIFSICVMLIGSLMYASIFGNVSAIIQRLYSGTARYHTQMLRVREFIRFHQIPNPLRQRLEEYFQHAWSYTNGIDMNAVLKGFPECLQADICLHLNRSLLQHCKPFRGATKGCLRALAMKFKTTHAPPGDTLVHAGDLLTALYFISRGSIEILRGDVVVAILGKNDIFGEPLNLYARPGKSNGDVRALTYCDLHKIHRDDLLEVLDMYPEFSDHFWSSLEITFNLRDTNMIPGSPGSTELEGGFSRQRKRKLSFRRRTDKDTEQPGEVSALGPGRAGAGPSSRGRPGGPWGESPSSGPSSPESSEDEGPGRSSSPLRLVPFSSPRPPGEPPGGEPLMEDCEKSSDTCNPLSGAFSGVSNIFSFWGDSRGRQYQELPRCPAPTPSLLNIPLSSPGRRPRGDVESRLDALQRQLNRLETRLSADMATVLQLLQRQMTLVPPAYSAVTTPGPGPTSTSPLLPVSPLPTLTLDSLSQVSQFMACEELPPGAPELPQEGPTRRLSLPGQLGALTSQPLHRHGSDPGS

As to `CCc1cc(-c2ccc(NS(=O)(=O)c3ccccc3Cl)c(F)c2)cc2cnc(N[C@H]3CC[C@H](N)CC3)nc12` [Compound 24, N-(4-(2-(((1r,4r)-4-aminocyclohexyl)amino)-8-ethylquinazolin-6-yl)-2-fluorophenyl)-2-chlorobenzene-sulfonamide], the results for the IC50 at hERG channel and on IRE1a [2] were 1000 to 10000 nM and not above 5 nM, respectively. The viability – broadly, a per cent measure of how many cells are alive, often set against a control – at 0.185 µM with 293T cells lay in the range of 75 to 100%. Moreover, the viability at 0.5556 µM with 293T cells (0.5556 uM) fell in the range of 75 to 100%. In addition, the viability at 1.667 µM with 293T cells (1.667 uM) lay in the range of 50 to 75%. Moreover, in the series with 293T cells (5 uM), the viability at 5 µM is 50 to 75%. Further, the EC50 (usually the concentration needed to bring the measured effect to its halfway point) in the series on IRE1a [1] is not above 5 nM.
Regarding `CCc1cc(-c2ccc(NS(=O)(=O)c3ccccc3Cl)nc2OC)cc2cnc(N[C@H]3CC[C@H](N)CC3)nc12` [Compound 37, N-(5-(2-(((1r,4r)-4-aminocyclohexyl)amino)-8-ethylquinazolin-6-yl)-6-methoxypyridin-2-yl)-2-chlorobenzene-sulfonamide], the bioavailability (usually dose-corrected exposure relative to a reference, in per cent) in “in vivo” was found to be 17%. For the same molecule, the IC50 (commonly the concentration at which inhibition is half-maximal) was 10000 to 50000 nM on hERG channel and not above 5 nM at IRE1a [2]. For the same molecule, the “% Growth at 0.5556 uM” value in the series with 293T cells (0.5556 uM) is listed as “D (D: >75% to ≤100%)”. Besides, the “% Growth at 1.667 uM” value in the series with 293T cells (1.667 uM) was “C (C: >50% to ≤75%)”. For the same molecule, the “% Growth at 5 uM” value in the series on 293T cells (5 uM) was “B (B: >25% to ≤50%)”. Further, the EC50 in the series on IRE1a [1] was not above 5 nM.
With `CCc1cc(-c2nnc(NS(=O)(=O)c3ccccc3Cl)cc2C)cc2cnc(N[C@H]3CC[C@H](N)CC3)nc12` [Compound 67, N-(6-(2-(((1r,4r)-4-aminocyclohexyl)amino)-8-ethylquinazolin-6-yl)-5-methylpyridazin-3-yl)-2-chlorobenzene-sulfonamide], the viability at 0.185 µM with 293T cells fell in the range of 75 to 100%. Further, in the series on 293T cells (0.5556 uM), the viability at 0.5556 µM was in the range of 75 to 100%. The viability at 1.667 µM in the series with 293T cells (1.667 uM) was 50 to 75%. Also, the viability at 5 µM in the series with 293T cells (5 uM) lay in the range of 50 to 75%. Further, the EC50 in the series on IRE1a [1] was 5 to 50 nM. Besides, the IC50 at IRE1a [2] was not above 5 nM.
In the case of `CCc1cc(-c2ccc(NS(=O)(=O)c3ccccc3Cl)c(F)c2)cc2cnc(N[C@H]3CC[C@H](N(C)C)CC3)nc12` [Compound 69, 2-chloro-N-(4-(2-(((1r,4r)-4-(dimethylamino)cyclohexyl)amino)-8-ethylquinazolin-6-yl)-2-fluorophenyl) benzene-sulfonamide], the IC50 on hERG channel was 10000 to 50000 nM; at IRE1a [2], not above 5 nM. Moreover, the viability at 0.5556 µM in the series with 293T cells (0.5556 uM) was in the range of 75 to 100%. Besides, in the series with 293T cells (1.667 uM), the viability at 1.667 µM lay in the range of 50 to 75%. Also, the viability at 5 µM with 293T cells (5 uM) lay in the range of 50 to 75%. Besides, the EC50 in the series on IRE1a [1] is not above 5 nM.
Turning to `CCc1cc(-c2ccc(NS(=O)(=O)c3ccccc3Cl)c(F)c2C)cc2cnc(N[C@H]3CC[C@H](N)CC3)nc12` [Compound 71, N-(4-(2-(((1r,4r)-4-aminocyclohexyl)amino)-8-ethylquinazolin-6-yl)-2-fluoro-3-methylphenyl)-2-chlorobenzene-sulfonamide], the viability at 0.185 µM in the series on 293T cells was in the range of 75 to 100%. In addition, in the series on 293T cells (0.5556 uM), the viability at 0.5556 µM lay within 75 to 100%. For the same molecule, the viability at 1.667 µM in the series with 293T cells (1.667 uM) lay within 50 to 75%. In addition, the viability at 5 µM in the series on 293T cells (5 uM) was in the range of 25 to 50%. For the same molecule, in the series on IRE1a [1], the EC50 was not above 5 nM. The IC50 at IRE1a [2] is not above 5 nM.
`CCc1cc(-c2ccc(NS(=O)(=O)c3ccccc3Cl)nc2C)cc2cnc(N[C@H]3CC[C@H](N(C)C)CC3)nc12` [Compound 91, 2-chloro-N-(5-(2-(((1r,4r)-4-(dimethylamino)cyclohexyl)amino)-8-ethylquinazolin-6-yl)-6-methylpyridin-2-yl)benzenesulfonamide] had a bioavailability in the series “in vivo” of 66%. The EC50 with IRE1a [1] is not above 5 nM.
